# According to article PMC8024735, “Low Z‐4OHtam concentrations are associated with adverse clinical outcome among early stage premenopausal breast cancer patients treated with adjuvant tamoxifen” (Molecular Oncology, 2020):
# Several values for one entry are separate records, joined by “and”; a condition that tells them apart may be missing. Equal entries are not always repeated.
# Experiments:
# [1] = Quantification of tamoxifen and seven metabolites in bone marrow plasma by LC-MS/MS; conditions: for Mean concentration / Median concentration: bone marrow plasma, N = 406, ~ 8 months from tamoxifen initiation
# Protocol: During the isolation of mononuclear cells, BM samples were diluted 1 : 2 in PBS and centrifuged 10 min at 1000 g. After centrifugation, 3 × 1 mL samples of BM plasma was removed and stored at −40 °C and later transferred to −80 °C.
# Tamoxifen and seven metabolites (Table 2) were quantified in human BM plasma samples collected ~ 8 months from tamoxifen initiation using our previously described method for serum [17]. In brief, protein precipitation (20 μL) of BM plasma was performed in acetonitrile containing deuterated internal standards. The supernatant (80 μL) was evaporated to dryness using nitrogen and subsequently reconstituted in 500 μL water : methanol (20 : 80, v:v). Subsequently, the samples were chromatographically separated on a Waters Acquity UPLC system (Milford, MA, USA) using a Waters BEH Phenyl column (100 mm × 2.1 mm, 1.7 μm particle size). The column was developed by a gradient elution of 0.01% aqueous solution of formic acid and methanol as weak and strong mobile phases, respectively. The compounds were subjected to atmospheric pressure photoionization and detected in positive ion mode using a Xevo TQ‐S tandem mass spectrometer (Waters, Taunton, MA, USA). All measured concentrations were multiplied by 3 to account for the dilution factor caused by adding 2 volumes of PBS during the isolation of mononuclear cells.
# ER‐positive BC = tested on: ER‐positive BC; design: method as in PMID 15894097; conditions: patients using tamoxifen; cited from earlier work
# ER = conditions: fold higher than tamoxifen; cited from earlier work
# breast cancer patients = tested on: breast cancer patients; design: method as in PMID 29183390; conditions: thresholds Z-4OHtam 3.26 nM, Z-endoxifen 9 nM, learning set; cited from earlier work
# [2] = design: method as in printed; conditions: has been reported, ref not given; cited from earlier work
# [3] = tested on: estrogen receptor‐positive breast cancer (BC) patients; assay: Breast cancer-specific survival (BCSS) according to active metabolite thresholds, Kaplan-Meier and Cox regression; assay type: in vivo, human
# Text: Patients included in this retrospective analysis were selected from subjects on a prospective trial investigating the value of Secondary Adjuvant (rescue) Treatment with docetaxel (Taxotere) [SATT (Secondary Adjuvant Treatment with Taxotere) study] for BC patients with disseminated tumor cells in their bone marrow (BM). […] Inclusion criteria were completion of primary surgery, completion of six cycles of anthracycline (AC)‐containing chemotherapy, and node‐positive or pT1c‐T4G2‐3 node‐negative BC with no earlier or other concomitant carcinoma.
# Thus, they reflect patients treated with endocrine treatment outside studies, according to national guidelines.
# Selection of patients younger than 45 years ensured that the patients received tamoxifen as a monotherapy for 5 years according to guidelines at the time of inclusion. […] Patients with plasma tamoxifen concentrations of < 40 nM were considered to be nonadherent to tamoxifen and excluded from both subgroups. As molecular subtyping was not available, the relevance of luminal subgroup status on active metabolite thresholds was investigated by creation of a Luminal B‐like subgroup based on tumor pathological surrogate markers available. […] All other patients were grouped as Luminal A [29, 30].
# Survival analyses included Kaplan–Meier and Cox regression analyses in which breast cancer‐specific survival (BCSS), defined as time from inclusion to death by BC, was used as the main outcome variable. The log‐rank test was applied to test for statistical difference in survival between groups. […] First, we fitted univariable Cox models. Next, in multivariable Cox regression models we included both clinically relevant variables and variables with a P‐value ≤ 0.2 from the univariable analysis. […] Distribution of metabolite concentrations and clinical variables was calculated and presented as means, medians, and frequencies. Interpatient variability in tamoxifen concentrations was calculated as coefficients of variation. Ratios between Z‐endoxifen and Z‐4OHtam were calculated by dividing the two metabolite concentrations and reported as means with range. All statistical analyses were conducted using IBM ® SPSS ® Statistics version 25 (SPSS, Inc., Chicago, IL, USA). Two‐tailed P‐values < 0.05 were considered statistically significant.
# [4] = all analyzed patients (n = 406)
compound,measurement,setting,value
"CC/C(=C(\c1ccccc1)c1ccc(OCCN)cc1)c1ccccc1 [NNDDtam, N,N‐di‐desmethyl tamoxifen]",Mean concentration,[1],94.7 nM
CC/C(=C(\c1ccccc1)c1ccc(OCCNC)cc1)c1ccccc1 [NDtam],Mean concentration,[1],694.9 nM
same,Median concentration,[1],655.8 nM
"CC/C(=C(\c1ccccc1)c1ccc(OCCN(C)C)cc1)c1ccccc1 [Tam, tamoxifen]",Mean concentration,[1],365.9 nM
same,Median concentration,[1],341.2 nM
same,Patients experiencing a relapse within 10 years,ER‐positive BC,~ 25%
CC/C(=C(\c1ccccc1)c1ccc(OCCN(C)C)cc1)c1ccc(O)cc1 [Z‐4'‐OHtam],Mean concentration,[1],6.9 nM
same,Median concentration,[1],6.6 nM
CCC(=C(c1ccccc1)c1ccc(OCCNC)cc1)c1ccc(O)cc1 [Z‐4'‐endoxifen],Mean concentration,[1],20.8 nM
same,Median concentration,[1],19.6 nM
"CC/C(=C(\c1ccc(O)cc1)c1ccc(OCCN(C)C)cc1)c1ccccc1 [Z‐4OHtam, Z‐4‐hydroxy‐tamoxifen]",Affinity to the ER compared with tamoxifen,ER,100 × and ~ 100 ×
"CC/C(=C(\c1ccc(O)cc1)c1ccc(OCCNC)cc1)c1ccccc1 [Z‐endoxifen, 4‐hydroxy‐N‐desmethyl tamoxifen]",Affinity to the ER compared with tamoxifen,ER,100 × and ~ 100 ×
same,Hazard ratio (HR) of threshold in prior report,breast cancer patients,3.73
same,Abundance in serum compared with Z-4OHtam,[2],up to 10 times
same,Median ratio between Z-endoxifen and Z-4OHtam concentrations,[1]; 'tamoxifen-only' subgroup,5.6
same,Range of ratio between Z-endoxifen and Z-4OHtam concentrations,[1]; 'tamoxifen-only' subgroup,1.9–14.9
same,Median ratio between Z-endoxifen and Z-4OHtam concentrations,[1]; [4],5.7
same,Range of ratio between Z-endoxifen and Z-4OHtam concentrations,[1]; [4],1.2–14.9
same,Mean concentration,[1],28.7 nM
same,Median concentration,[1],26.6 nM
same,"Association of ordinal categories (low, moderate, high concentration) with BCSS",[3]; 'tamoxifen-only' subgroup,No significant associations
same,Association of threshold with BCSS,"[3]; 'tamoxifen-only' subgroup, uni-/multivariable",No uni‐/multivariable associations
same,HR for BCSS,"[3]; Z-endoxifen 9.00 nM threshold, all patients n = 406",0.63 (0.15-2.60)
same,"HR (95% CI) for BCSS, univariable","[3]; Z-endoxifen ≤ 9 nM vs > 9 nM, 'tamoxifen-only' subgroup n = 191",0.98 (0.23–4.15)
same,Association of concentrations below thresholds with BCSS,"[3]; all 406 patients, thresholds 9 nM Z-endoxifen, 3.26 nM Z-4OHtam",not associated with BCSS
same,Predictive value of thresholds in Luminal A / Luminal B-like subgroups,"[3]; post hoc analysis, thresholds 3.26 and 9 nM",not predictive of survival in either subgroup
CC/C(=C(\c1ccccc1)c1ccc(OCC[N+](C)(C)[O-])cc1)c1ccccc1 [TamNoX],Mean concentration,[1],49.9 nM
same,Median concentration,[1],43.1 nM
